Values after ≈ are worked out from the molar mass of the structure shown. Like-named read-outs stand apart in the source and are kept apart here.
Columns and labels:
Aero. cloacae = experiment: In vitro minimum inhibitory concentration (MIC), tube dilution test; type: cell-based; details: Enterobacter cloacae; Aero. cloacae (39A); brain-heart infusion broth, 20hour incubation at 37° C.; read-out: Minimal Inhibitory Test Conens. (MIC)
Method: (§1) A. In vitro: mimimum inhibitory concentration (MIC)
(§2) The compound was tested in a standard bacteriological tube dilution test for MIC for a variety of bacteria. Stock cultures of the bacteria listed in Table 1 were grown in bacterial culture media at 37° C. overnight and diluted in culture tubes to a previously determined concentration proper for the test. The compound was added to result in final concentrations of 10, 2, 0.4 and 0.08 μg/ml. These were incubated for 18 hours at 37° C. and then observed to determine if growth of bacteria had occurred. The lowest concentration of the compound that inhibited bacterial growth in the MIC.
(§3) *brain-heart infusion broth, 20hour incubation at 37° C.

Bac. subtilis = experiment: as above; type: cell-based; details: Bacillus subtilis; Bac. subtilis (07A); brain-heart infusion broth, 20hour incubation at 37° C.; read-out: Minimal Inhibitory Test Conens. (MIC)
Method: as §1, §2, §3

E. coli = experiment: as above; type: cell-based; details: Escherichia coli, 20 h, brain-heart infusion broth, 20hour incubation at 37° C., read-out: Minimal Inhibitory Test Conens. (MIC)
Method: as §1, §2, §3

Kleb. aerobacter = experiment: as above; type: cell-based; details: Kleb. aerobacter (20F); brain-heart infusion broth, 20hour incubation at 37° C.; read-out: Minimal Inhibitory Test Conens. (MIC)
Method: as §1, §2, §3

Proteus sp. = experiment: as above; type: cell-based; details: brain-heart infusion broth, 20hour incubation at 37° C., read-out: Minimal Inhibitory Test Conens. (MIC)
Method: as §1, §2, §3

Proteus vulgaris = experiment: as above; type: cell-based; details: Proteus vulgaris (14P); brain-heart infusion broth, 20hour incubation at 37° C.; read-out: Minimal Inhibitory Test Conens. (MIC)
Method: as §1, §2, §3

Sal. choleraesuis = experiment: as above; type: cell-based; details: Salmonella enterica, 20 h, read-out: Minimal Inhibitory Test Conens. (MIC)
Method: as §1, §2, §3

Sal. gallinarum = experiment: as above; type: cell-based; details: Salmonella enterica, 20 h, brain-heart infusion broth, 20hour incubation at 37° C., read-out: Minimal Inhibitory Test Conens. (MIC)
Method: as §1, §2, §3

Sal. typhimurium = experiment: as above; type: cell-based; details: Salmonella enterica, 20 h, brain-heart infusion broth, 20hour incubation at 37° C., read-out: Minimal Inhibitory Test Conens. (MIC)
Method: as §1, §2, §3

Sal. typhi = experiment: as above; type: cell-based; details: brain-heart infusion broth, 20hour incubation at 37° C.
Method: as §1, §2, §3

Ser. marcescens = experiment: as above; type: cell-based; details: Serratia marcescens; Ser. marcescens (22); brain-heart infusion broth, 20hour incubation at 37° C.; read-out: Minimal Inhibitory Test Conens. (MIC)
Method: as §1, §2, §3

Shiq. dysenteriae = experiment: as above; type: cell-based; details: 20 h, read-out: Minimal Inhibitory Test Conens. (MIC)
Method: as §1, §2, §3

Strep. pyogenes = experiment: as above; type: cell-based; details: Streptococcus pyogenes; Strep. pyogenes (10V); brain-heart infusion broth, 20hour incubation at 37° C.; read-out: Minimal Inhibitory Test Conens. (MIC)
Method: as §1, §2, §3

[1] = General pharmacology screen in mice; details: mouse, in vivo, po; for TD50: doses given in mg./kg
Method: 17- to 24-hour fasted female white mice, 16-20 g. each, or rats, 70-90 g. each were dosed orally with test drug (or standard) at 0, 4, 12, 36, 108 or 324 mg./kg.
Ataxia--The mouse or rat was placed upright on the bench top facing away from the observer. Motor incoordination manifested by abnormal gait or lack of precision during purposive movements constituted ataxia.
Vertical Bar--The mouse or rat was swung by the tail with head pointing down to a 0.5" diameter (1" diameter for rats), 30.5 cm long vertical rod covered with adhesive tape. Inability to grip the rod with the front paws, sliding or failure to move after being prodded constituted vertical bar loss.
Body Temperature--The rectal temperatures of the mice and rats were taken using a KC-1 thermocouple probe.
Excitement and Irritability--Increased spontaneous motor activity, running and jumping prior to handling were recorded as excitement. Upon handling, jumping, jerking, biting and squeaking were recorded as irritability.
Anorexia--At the end of the 0.5 hour testing period, each mouse was transferred to an individual, clear, Lucite® compartment (13.3 cm×12.7 cm×12.7 cm) with a 0.64 cm×0.64 cm wire mesh floor. Inside each compartment there was a section of a black Lucite® bar [13 cm×1.2 cm×1.2 cm) with ten spot depressions (0.8 cm diameter) each containing 0.05 ml. of 50% sweetened condensed milk. 30 Minutes later the number of milk spots consumed was counted. 5 Mice per drug dose can drink a maximum of 50 spots (2.5 ml. of milk). 15 or fewer spots consumed by 5 mice constituted anorexia.

[2] = General pharmacology screen in rats; details: in vivo, rat, doses given in mg./kg; for TD50: po
Pseud. aeruginosa = experiment: In vitro minimum inhibitory concentration (MIC), tube dilution test; type: cell-based; details: Pseudomonas aeruginosa, 20 h, brain-heart infusion broth, 20hour incubation at 37° C., read-out: Minimal Inhibitory Test Conens. (MIC)

For `CCn1cc(C(=O)O)c(=O)c2cc3c(cc21)OCO3` [Oxolinic Acid, oxolinic acid], the MIC (Aero. cloacae) was < 0.08 µg/mL, the MIC (Bac. subtilis) was < 0.08 µg/mL and the MIC (E. coli; E. coli (06-2B)) was 2 µg/mL (≈ 7.66 µM). The MIC (E. coli; E. coli (06-2F)) was 0.4 µg/mL (≈ 1.53 µM), the MIC (E. coli; E. coli (06-2L)) was 10 µg/mL (≈ 38.3 µM) and the MIC (E. coli; E. coli (06-2M)) was < 0.08 µg/mL. It also gave an MIC (E. coli; E. coli (06C)) of 2 µg/mL (≈ 7.66 µM), an MIC (E. coli; E. coli (06I)) of 10 µg/mL (≈ 38.3 µM) and an MIC (E. coli; E. coli (06J)) of 0.4 µg/mL (≈ 1.53 µM). For the same compound, the MIC (E. coli; E. coli (06K)) was 0.4 µg/mL (≈ 1.53 µM), the MIC (E. coli; E. coli (06L)) was 0.4 µg/mL (≈ 1.53 µM) and the MIC (E. coli; E. coli (06M)) was 0.4 µg/mL (≈ 1.53 µM). For the same compound, the MIC (E. coli; E. coli (06S)) was 2 µg/mL (≈ 7.66 µM), the MIC (E. coli; E. coli (06V)) was 0.4 µg/mL (≈ 1.53 µM) and the MIC (E. coli; E. coli (06X)) was 2 µg/mL (≈ 7.66 µM). For the same compound, the MIC (E. coli; E.coli (06-2D)) was 2 µg/mL (≈ 7.66 µM), the MIC (Kleb. aerobacter) was > 10 µg/mL and the MIC (Proteus sp.) was < 0.08 µg/mL. For the same compound, the MIC (Proteus vulgaris) was 2 µg/mL (≈ 7.66 µM), the MIC (Sal. choleraesuis) was < 0.08 µg/mL and the MIC (Sal. gallinarum; Sal. gallinarum (04C)) was 2 µg/mL (≈ 7.66 µM). It also gave an MIC (Sal. gallinarum; Sal. gallinarum (04D)) of 0.4 µg/mL (≈ 1.53 µM), an MIC (Sal. typhimurium; Sal. typhimurium (03A)) of 0.4 µg/mL (≈ 1.53 µM) and an MIC (Sal. typhimurium; Sal. typhimurium (03C)) of 0.4 µg/mL (≈ 1.53 µM). The MIC (Sal. typhimurium; Sal. typhimurium (03K)) was < 0.08 µg/mL, the “Minimal Inhibitory Test Conens. (MIC)” value (Sal. typhi; Sal. typhi (02B)) was 0.4 µg/mL and the MIC (Sal. typhi; Salmonella enterica, Sal. typhi (02A), read-out: Minimal Inhibitory Test Conens. (MIC)) was 0.4 µg/mL (≈ 1.53 µM). For the same compound, the MIC (Ser. marcescens) was 0.4 µg/mL (≈ 1.53 µM), the MIC (Shiq. dysenteriae) was 0.4 µg/mL (≈ 1.53 µM) and the MIC (Strep. pyogenes) was < 0.08 µg/mL. For the same compound, the LD50 at 24 h [1] was > 450 mg/kg, the TD50 ([1]; ED50 Anoroxia, 15 or fewer milk spots consumed by 5 mice) was 21 mg/kg and the TD50 ([1]; ED50 Ataxia) was 3.2 mg/kg. The TD50 ([1]; ED50 Excitation) was 8 mg/kg, the TD50 ([1]; ED50 Hypertherm., rectal temperature) was > 450 mg/kg and the TD50 ([1]; ED50 Hypotherm., rectal temperature) was > 450 mg/kg. The TD50 ([1]; ED50 Irritability) was 36 mg/kg, the TD50 ([1]; ED50 Vert. Bar, vertical bar loss) was 4.5 mg/kg and the LD50 at 24 h ([2]; oral, read-out: ED50 24-Hour Mort.) was > 324 mg/kg. For the same compound, the TD50 ([2]; read-out: ED50 Ataxia) was 97 mg/kg, the TD50 ([2]; read-out: ED50 Excitation) was 62 mg/kg and the TD50 ([2]; read-out: ED50 Irritability) was > 324 mg/kg. The TD50 ([2]; rectal temperature, read-out: ED50 Hypertherm.) was 121 mg/kg, the TD50 ([2]; rectal temperature, read-out: ED50 Hypotherm.) was > 324 mg/kg and the TD50 ([2]; vertical bar loss, read-out: ED50 Vert. Bar) was 187 mg/kg. It also gave an MIC (Pseud. aeruginosa; Pseud. aeruginosa (11B)) of 2 µg/mL (≈ 7.66 µM), an MIC (Pseud. aeruginosa; Pseud. aeruginosa (11C)) of 2 µg/mL (≈ 7.66 µM) and an MIC (Pseud. aeruginosa; Pseud. aeruginosa (11D)) of 10 µg/mL (≈ 38.3 µM). The MIC (Pseud. aeruginosa; Pseud. aeruginosa (11G)) was 10 µg/mL (≈ 38.3 µM), the MIC (Pseud. aeruginosa; Pseud. aeruginosa (11I)) was 2 µg/mL (≈ 7.66 µM) and the MIC (Pseud. aeruginosa; Pseud. aeruginosa (11J)) was 2 µg/mL (≈ 7.66 µM).

Reference: patent US4216324A, “1-Difluoromethyl-6,7-methylenedioxy-1,4-dihyd ro-4-oxo-3-quinolinecarboxylic acid” (E. I. Du Pont de Nemours and Company, priority 1978, dated 1980)
